# Measurements: ChEMBL document CHEMBL1135424, “Beta-aryl-succinic acid hydroxamates as dual inhibitors of matrix metalloproteinases and tumor necrosis factor alpha converting enzyme” (J Med Chem, 2002)
# Columns and labels:
# Stromelysin-1 = Stromelysin-1 (Homo sapiens, UniProt P08254); test: Inhibitory potency against Matrix metalloprotease-3 (MMP-3)
# Interstitial collagenase = molecular target: T1, Interstitial collagenase (Homo sapiens, UniProt P03956); test: Inhibitory potency against Matrix metalloprotease-1 (MMP-1)
# T1 sequence (P03956 whole entry): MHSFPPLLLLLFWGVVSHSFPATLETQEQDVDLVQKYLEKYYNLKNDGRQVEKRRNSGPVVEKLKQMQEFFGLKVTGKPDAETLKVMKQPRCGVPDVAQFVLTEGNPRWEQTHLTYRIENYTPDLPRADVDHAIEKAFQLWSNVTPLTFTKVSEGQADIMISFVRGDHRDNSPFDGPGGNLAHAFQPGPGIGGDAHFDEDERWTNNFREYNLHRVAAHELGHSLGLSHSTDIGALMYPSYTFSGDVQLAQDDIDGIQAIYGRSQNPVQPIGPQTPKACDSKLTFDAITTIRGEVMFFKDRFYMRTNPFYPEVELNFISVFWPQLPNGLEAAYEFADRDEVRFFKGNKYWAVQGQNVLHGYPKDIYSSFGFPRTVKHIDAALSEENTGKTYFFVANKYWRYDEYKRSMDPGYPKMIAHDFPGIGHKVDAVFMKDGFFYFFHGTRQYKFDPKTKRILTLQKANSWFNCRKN
# [1] = molecular target: Disintegrin and metalloproteinase domain-containing protein 17 (Homo sapiens, UniProt P78536); test: Inhibitory potency against Tumor necrosis factor alpha converting enzyme (TACE)
# Disintegrin and metalloproteinase domain-containing protein 17, sequence (P78536 whole entry, the tested form may be a part): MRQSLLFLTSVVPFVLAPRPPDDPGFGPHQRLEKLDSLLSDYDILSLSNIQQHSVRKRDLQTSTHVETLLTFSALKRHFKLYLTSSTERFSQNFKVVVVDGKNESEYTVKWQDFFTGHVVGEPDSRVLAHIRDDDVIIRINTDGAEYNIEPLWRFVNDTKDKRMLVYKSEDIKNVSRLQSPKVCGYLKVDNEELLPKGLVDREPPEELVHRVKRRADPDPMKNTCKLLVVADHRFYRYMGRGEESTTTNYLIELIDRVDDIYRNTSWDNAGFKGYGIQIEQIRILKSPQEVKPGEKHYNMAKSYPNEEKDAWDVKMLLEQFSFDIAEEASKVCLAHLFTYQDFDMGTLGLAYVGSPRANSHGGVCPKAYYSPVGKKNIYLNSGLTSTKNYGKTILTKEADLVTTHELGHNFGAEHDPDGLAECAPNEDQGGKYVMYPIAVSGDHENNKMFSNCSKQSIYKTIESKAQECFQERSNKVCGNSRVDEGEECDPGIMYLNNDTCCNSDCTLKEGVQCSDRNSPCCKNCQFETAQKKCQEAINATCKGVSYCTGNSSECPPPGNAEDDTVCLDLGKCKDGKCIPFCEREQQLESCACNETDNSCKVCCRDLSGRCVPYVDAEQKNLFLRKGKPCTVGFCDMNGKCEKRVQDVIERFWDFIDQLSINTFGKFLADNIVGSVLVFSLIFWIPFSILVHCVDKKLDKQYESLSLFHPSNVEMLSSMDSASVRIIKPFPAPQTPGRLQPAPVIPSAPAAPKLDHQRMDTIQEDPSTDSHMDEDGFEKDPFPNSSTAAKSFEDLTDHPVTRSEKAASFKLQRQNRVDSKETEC
# Tumor necrosis factor = Tumor necrosis factor (Homo sapiens, UniProt P01375); test: Inhibitory activity against tumor necrosis factor alpha (TNF-alpha) production in LPS-stimulated human PBMCs; assay type: functional
# Tumor necrosis factor, sequence (P01375 whole entry): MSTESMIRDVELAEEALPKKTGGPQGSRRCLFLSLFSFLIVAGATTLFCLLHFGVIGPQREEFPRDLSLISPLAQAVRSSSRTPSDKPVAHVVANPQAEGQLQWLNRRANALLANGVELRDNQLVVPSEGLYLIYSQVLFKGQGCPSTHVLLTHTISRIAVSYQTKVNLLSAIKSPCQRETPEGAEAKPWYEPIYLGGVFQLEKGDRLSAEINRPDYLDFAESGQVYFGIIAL
# [2] = molecular target: 72 kDa type IV collagenase (Homo sapiens, UniProt P08253); test: Inhibitory potency against Matrix metalloprotease-2 (MMP-2)
# 72 kDa type IV collagenase, sequence (P08253 whole entry): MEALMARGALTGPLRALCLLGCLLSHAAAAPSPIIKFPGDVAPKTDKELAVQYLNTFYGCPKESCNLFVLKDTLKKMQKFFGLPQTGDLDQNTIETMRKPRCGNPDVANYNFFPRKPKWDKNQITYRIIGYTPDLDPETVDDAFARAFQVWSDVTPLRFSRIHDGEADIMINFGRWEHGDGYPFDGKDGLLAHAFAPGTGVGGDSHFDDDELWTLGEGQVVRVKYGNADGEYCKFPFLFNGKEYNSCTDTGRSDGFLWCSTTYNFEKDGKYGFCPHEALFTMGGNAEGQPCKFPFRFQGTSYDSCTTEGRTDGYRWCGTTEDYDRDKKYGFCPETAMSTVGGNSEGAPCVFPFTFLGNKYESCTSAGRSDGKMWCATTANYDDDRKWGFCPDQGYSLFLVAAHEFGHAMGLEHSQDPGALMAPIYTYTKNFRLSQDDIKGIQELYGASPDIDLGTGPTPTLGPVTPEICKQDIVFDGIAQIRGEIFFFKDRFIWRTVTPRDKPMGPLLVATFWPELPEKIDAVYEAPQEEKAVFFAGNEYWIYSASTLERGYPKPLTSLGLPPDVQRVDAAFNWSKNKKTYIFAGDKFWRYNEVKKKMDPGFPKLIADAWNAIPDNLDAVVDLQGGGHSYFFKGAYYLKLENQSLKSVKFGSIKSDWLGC
# Stromelysin-1, sequence (P08254 whole entry): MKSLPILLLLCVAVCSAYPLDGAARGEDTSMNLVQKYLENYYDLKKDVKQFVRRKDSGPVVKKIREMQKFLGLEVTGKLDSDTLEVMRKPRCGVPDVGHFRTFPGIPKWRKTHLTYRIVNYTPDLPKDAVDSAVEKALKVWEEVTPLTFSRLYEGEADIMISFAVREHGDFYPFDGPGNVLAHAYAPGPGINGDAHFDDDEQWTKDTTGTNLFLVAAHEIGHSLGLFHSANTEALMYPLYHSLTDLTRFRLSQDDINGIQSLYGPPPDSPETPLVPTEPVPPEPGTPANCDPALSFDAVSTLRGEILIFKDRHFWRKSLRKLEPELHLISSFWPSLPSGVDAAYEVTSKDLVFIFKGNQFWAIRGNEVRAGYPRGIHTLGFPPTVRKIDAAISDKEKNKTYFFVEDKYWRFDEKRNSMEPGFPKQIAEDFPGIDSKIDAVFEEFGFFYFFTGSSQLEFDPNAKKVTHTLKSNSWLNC
Ki (Stromelysin-1) [nM],Ki (Interstitial collagenase) [nM],Ki [2] [nM],SMILES,Ki [1] [nM],IC50 (Tumor necrosis factor) [nM]
0.9,1.1,0.5,CNC(=O)[C@@H](NC(=O)[C@H](c1ccc(OC)cc1)[C@H](CO)C(=O)NO)C(C)(C)C,0.6,48
15.2,2,0.3,CNC(=O)[C@@H](NC(=O)[C@H](c1ccc(C)cc1)[C@H](CO)C(=O)NO)C(C)(C)C,3.8,269
13.2,3.5,4.8,CNC(=O)[C@@H](NC(=O)[C@H](c1ccccc1)[C@H](CO)C(=O)NO)C(C)(C)C,4.9,928
9.8,0.6,0.3,CNC(=O)[C@@H](NC(=O)[C@H](CC(C)C)[C@H](CO)C(=O)NO)C(C)(C)C,12.9,1610
–,–,–,CNC(=O)[C@@H](NC(=O)[C@H](CC(C)C)[C@H](O)C(=O)NO)C(C)(C)C,–,1000
